Data set [1] concerns mosquito, biting fly, tick. Nature of the data set: repellent behaviour of C12 fatty acid on treated skin. It is filed as in vivo. The following applies: insect will land but not bite on treated skin.
A short description of data set [2]: crystallization / phase stability of fatty acids in the MCT composition. In kind it is physicochemical. As to the method:
The first issue was one of phase stability, i.e., with higher levels of C12 fatty acid, the fatty acid precipitates out of the MCT matrix when essential oils are also present, leaving just the essential oils and the MCT carrier in solution.
The MCT as a dilutant at high enough percentage by weight in the composition prevents undesirable crystallization down to about 45-50° F. (with only C10 fatty acid, the composition is stable to about 12% concentration in the formula and with only C12 fatty acid, the composition is stable up to about 7%). It was also determined that the combination of either C8 or C10 with the C12 in a ratio of 1:4 or greater results in no undesirable crystallization.
A 100% substitution of the MCT with these yielded a clear product at cooler temperatures. […] Other co-solvents recognized by the present disclosure as useful in preventing crystallization of fatty acids from the composition include alcohols such as methanol, ethanol, propanol, and isopropanol. However, as indicated earlier, these alcohols are drying to the skin and should be avoided, if at all possible, in skin-care type repellent formulas.

The mark [3] stands for this setting: 100% substitution of the MCT, cooler temperatures.

The text below walks through data of US20230134377A1, “INSECT-REPELLENT PERSONAL-CARE COMPOSITION” (priority 2021, published 2023).

Structures are written as SMILES.

Turning to `CCCCCCCCCCCC(=O)O` [C12 fatty acid, lauric acid], the type of repellency entry in data set [1] is recorded as “close-proximity or contact repellent”. For the same compound, the “concentration in the formula up to which the composition is stable (no crystallization)” value in data set [2] (only this fatty acid, in MCT as dilutant) is listed as “about 7%”. Besides, the “solubility in MCTs” value in data set [2] (without essential oils) is reported as “completely soluble”.

Take `CCCCCCCCCCCCCC(=O)OC(C)C` [isopropyl myristate]: in data set [2], the “effect of co-solvent on crystallization when added to the composition” value is reported as “limit crystallization”. In addition, the figures for the “appearance after substitution of the MCT by the co-solvent” value in data set [2] (25% substitution level) and in data set [2] (setting [3]) were “significant benefit but not to the total clarity” and “clear product”, respectively.

Take `CCCCCCCCCC(=O)OC` [methyl decanoate]: the “effect of co-solvent on crystallization when added to the composition” value in data set [2] is “limit crystallization”. For the same compound, the results for the “appearance after substitution of the MCT by the co-solvent” value in data set [2] (25% substitution level) and in data set [2] (setting [3]) were “significant benefit but not to the total clarity” and “clear product”, respectively.
